According to article PMC2783032, “Affinity maturation generates greatly improved xyloglucan-specific carbohydrate binding modules” (BMC Biotechnology, 2009):

Columns and labels:
Assay in all cases: Isothermal titration calorimetry at 25 °C in 20 mM HEPES, pH 8.0, 2 mM CaCl2, 50 uM protein in the cell titrated with oligosaccharide, single-site non-linear regression.
Type in all cases: binding
[1] = test system: T1, XG-34/1-X
T1 construct: CBM4-2 domain scaffold, hexahistidine tag (pET22b, E. coli BL21 (DE3))
Protocol: (§1) Isothermal titration calorimetry (ITC) measurements were performed at 25°C following standard procedures using a Microcal Omega titration calorimeter (Northampton, MA, USA). XXXG and XLLG (Figure 1) were prepared as previously described. Prior to analysis, the CBM were extensively dialyzed against 20 mM HEPES, pH 8.0 containing 2 mM CaCl2. The same buffer was used to dissolve tamarind seed xyloglucan, XXXG, XLLG and galactose to minimize heats of dilution. 50 μM protein samples were stirred at 300 rpm in a 1.4331 ml reaction cell. Ligands were injected as a single 1 μl aliquot followed by 27 successive 10 μl aliquots at 300 s intervals (2 mM, 7.5 mM or 10 mM XXXG; 1 mM or 5 mM XLLG; 2.5% or 5% w/v xyloglucan; 10 mM galactose). Integrated heat effects were analyzed by non-linear regression using a single-site binding model.

[2] = test system: T2, XG-34/2-VI
T2 construct: CBM4-2 domain scaffold, hexahistidine tag (pET22b, E. coli BL21 (DE3))
Protocol: as §1

[3] = molecular target: T3, XG-34 (Rhodothermus marinus, UniProt Q7WTN6, E282H/E322D/F286L/F320H/Q321D/W279Y/Y359F); settings: read-out: KA (10^3 M^-1)
T3 construct: CBM4-2 domain scaffold, hexahistidine tag (pET22b, E. coli BL21 (DE3))
Protocol: as §1

Compound: OC[C@H]1OC(O)[C@H](O)[C@@H](O)[C@@H]1O[C@@H]1O[C@H](CO[C@H]2OC[C@@H](O)[C@H](O)[C@H]2O)[C@@H](O[C@@H]2O[C@H](CO[C@H]3OC[C@@H](O)[C@H](O)[C@H]3O)[C@@H](O[C@@H]3O[C@H](CO[C@H]4OC[C@@H](O)[C@H](O)[C@H]4O)[C@@H](O)[C@H](O)[C@H]3O)[C@H](O)[C@H]2O)[C@H](O)[C@H]1O (stereo partly shown) [XXXG, xyloglucan oligosaccharide XXXG (non-galactosylated heptasaccharide, Xyl3Glc4)]
- KA (10^3 M^-1) [1]: ~ ≈ 1 M-1
- KA (10^3 M^-1) [2]: ~ ≈ 1 M-1
- Kd [3]: ~1 mM

Compound: OC[C@H]1O[C@@H](O[C@H]2[C@@H](OC[C@H]3O[C@@H](O[C@H]4[C@H](O)[C@@H](O)[C@H](O[C@H]5[C@H](O)[C@@H](O)C(O)O[C@@H]5CO)O[C@@H]4CO[C@H]4OC[C@@H](O)[C@H](O)[C@H]4O[C@@H]4O[C@H](CO)[C@H](O)[C@H](O)[C@H]4O)[C@H](O)[C@@H](O)[C@@H]3O[C@@H]3O[C@H](CO[C@H]4OC[C@@H](O)[C@H](O)[C@H]4O)[C@@H](O)[C@H](O)[C@H]3O)OC[C@@H](O)[C@@H]2O)[C@H](O)[C@@H](O)[C@H]1O (stereo partly shown) [XLLG, xyloglucan oligosaccharide XLLG (galactose-containing nonasaccharide, Gal2Xyl3Glc4)]
- Kd [3]: ~1 mM
